Measurements as given in patent US20240140951A1, “IMIDAZOPYRIDAZINE DERIVATIVES AS IL-17 MODULATORS” (UCB Biopharma SRL, priority 2020, published 2024).

Biological target: T1, IL-17A (Homo sapiens, UniProt Q16552)
T1 sequence (Q16552 24-155): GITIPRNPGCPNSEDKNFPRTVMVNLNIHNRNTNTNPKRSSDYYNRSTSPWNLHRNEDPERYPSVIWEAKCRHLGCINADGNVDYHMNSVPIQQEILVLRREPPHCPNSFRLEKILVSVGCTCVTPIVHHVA
Test: Inhibition of IL-17A induced IL-6 release from dermal fibroblast cell line (HDF cell line assay)
Type: cell-based
Conditions: HDF cells stimulated with IL-17A 50 pM + TNF-α 25 pM; IL-6 release measured by HTRF
Source text: Inhibition of IL-17A Induced IL-6 Release from Dermal Fibroblast Cell Line
The purpose of this assay is to test the neutralising ability to IL-17 proteins, in a human primary cell system. Stimulation of normal human dermal fibroblasts (HDF) with IL-17 alone produces only a very weak signal but in combination with certain other cytokines, such as TNFα, a synergistic effect can be seen in the production of inflammatory cytokines, i.e. IL-6.
HDFs were stimulated with IL-17A (50 pM) in combination with TNF-α (25 pM). The resultant IL-6 response was then measured using a homogenous time-resolved FRET kit from Cisbio. The kit utilises two monoclonal antibodies, one labelled with Eu-Cryptate (Donor) and the second with d2 or XL665 (Acceptor). The intensity of the signal is proportional to the concentration of IL-6 present in the sample (Ratio is calculated by 665/620×104).
The ability of a compound to inhibit IL-17 induced IL-6 release from human dermal fibroblasts is measured in this assay.
HDF cells (Sigma #106-05n) were cultured in complete media (DMEM+10% FCS+2 mM L-glutamine) and maintained in a tissue culture flask using standard techniques. Cells were harvested from the tissue culture flask on the morning of the assay using TrypLE (Invitrogen #12605036). The TrypLE was neutralised using complete medium (45 mL) and the cells were centrifuged at 300×g for 3 minutes. The cells were re-suspended in complete media (5 mL) counted and adjusted to a concentration of 3.125×10^4 cells/mL before being added to the 384 well assay plate (Corning #3701) at 40 μL per well. The cells were left for a minimum of three hours, at 37° C./5% CO2, to adhere to the plate.
Compounds were serially diluted in DMSO before receiving an aqueous dilution into a 384 well dilution plate (Greiner #781281), where 5 μL from the titration plate was transferred to 45 μL of complete media and mixed to give a solution containing 10% DMSO.
Mixtures of TNFα and IL-17 cytokine were prepared in complete media to final concentrations of TNFα 25 pM/IL-17A 50 pM, then 30 μL of the solution was added to a 384 well reagent plate (Greiner #781281).
L from the aqueous dilution plate was transferred to the reagent plate containing 30 μL of the diluted cytokines, to give a 2.5% DMSO solution. The compounds were incubated with the cytokine mixtures for 5 h at 37° C. After the incubation, 10 μL was transferred to the assay plate, to give a 0.5% DMSO solution, then incubated for 18-20 h at 37° C./5% CO2.
From the Cisbio IL-6 FRET kit (Cisbio #62IL6PEB) europium cryptate and Alexa 665 were diluted in reconstitution buffer and mixed 1:1, as per kit insert. To a white low volume 384 well plate (Greiner #784075) were added FRET reagents (10 μL), then supernatant (10 μL) was transferred from the assay plate to Greiner reagent plate. The mixture was incubated at room temperature for 3 h with gentle shaking (<400 rpm) before being read on a Synergy Neo 2 plate reader (Excitation: 330 nm; Emission: […]).

Structure (SMILES)	IC50 [nM]
Cc1nonc1C(=O)N[C@H](c1cn2ncc(C(CC(F)F)c3nnc4ccc(F)cn34)cc2n1)C1CCC(F)(F)CC1 (single isomer, unassigned) [Example 12]	31.6
Cc1nonc1C(=O)N[C@H](c1cn2ncc(C3CN(C4COC4)CC3C(=O)N3CC(F)(F)C(F)(F)C3)cc2n1)C1CCC(F)(F)CC1 (single isomer, unassigned) [Example 13]	25.1
Cc1nonc1C(=O)N[C@H](c1cn2ncc(C(CC(F)F)c3nnnn3CC(F)(F)F)cc2n1)C1CCC(F)(F)CC1 (single isomer, unassigned) [Example 15, N-[(S)-(4,4-Difluorocyclohexyl)(7-{(1S*)-3,3-difluoro-1-[1-(2,2,2-trifluoroethyl)tetrazol-5-yl]propyl}imidazo[1,2-b]pyridazin-2-yl)methyl]-4-methyl-1,2,5-oxadiazole-3-carboxamide]	20
Cc1nonc1C(=O)N[C@H](c1cn2ncc(C3CC(F)(F)CCN3C(=O)C34CC(F)(C3)C4)cc2n1)C1CCC(F)(F)CC1 (single isomer, unassigned) [Example 16]	25.1
Cc1nonc1C(=O)N[C@H](c1cn2ncc(C(CC(F)F)C(=O)NCC(F)(F)F)cc2n1)C1CCC(F)(F)CC1 (stereo partly drawn) [Example 1, N-[(S)-(4,4-Difluorocyclohexyl){7-[3,3-difluoro-1-(2,2,2-trifluoroethylcarbamoyl)-propyl]imidazo[1,2-b]pyridazin-2-yl}methyl]-4-methyl-1,2,5-oxadiazole-3-carboxamide]	39.8
CNC(=O)[C@H](NC(=O)C(CC(F)F)c1cnn2cc([C@@H](NC(=O)c3nonc3C)C3CCC(F)(F)CC3)nc2c1)C(C)C (stereo partly drawn) [Example 2, N-{(S)-(4,4-difluorocyclohexyl)[7-(3,3-difluoro-1-{[(1R)-2-methyl-1-(methylcarbamoyl)-propyl]carbamoyl}propyl)imidazo[1,2-b]pyridazin-2-yl]methyl}-4-methyl-1,2,5-oxadiazole-3-carboxamide]	10
CCc1nonc1C(=O)N[C@H](c1cn2ncc(C(CC(F)F)C(=O)NCC(F)(F)F)cc2n1)C1CCC(F)(F)CC1 (stereo partly drawn) [Example 5, N-[(S)-(4,4-Difluorocyclohexyl){7-[3,3-difluoro-1-(2,2,2-trifluoroethylcarbamoyl)-propyl]imidazo[1,2-b]pyridazin-2-yl}methyl]-4-ethyl-1,2,5-oxadiazole-3-carboxamide]	20
CC(C)n1nccc1C(=O)N[C@H](c1cn2ncc(C(CC(F)F)C(=O)NCC(F)(F)F)cc2n1)C1CCC(F)(F)CC1 (stereo partly drawn) [Example 7, N-[(S)-(4,4-Difluorocyclohexyl){7-[3,3-difluoro-1-(2,2,2-trifluoroethylcarbamoyl)-propyl]imidazo[1,2-b]pyridazin-2-yl}methyl]-2-isopropylpyrazole-3-carboxamide]	25.1
CC(C)n1ncnc1C(=O)N[C@H](c1cn2ncc(C(CC(F)F)C(=O)NCC(F)(F)F)cc2n1)C1CCC(F)(F)CC1 (stereo partly drawn) [Example 8, N-[(S)-(4,4-Difluorocyclohexyl){7-[3,3-difluoro-1-(2,2,2-trifluoroethylcarbamoyl)-propyl]imidazo[1,2-b]pyridazin-2-yl}methyl]-2-isopropyl-1,2,4-triazole-3-carboxamide]	158
Cc1nonc1C(=O)N[C@H](c1cn2ncc(C3(C(=O)NCC(F)(F)F)CCC(F)(F)CC3)cc2n1)C1CCC(F)(F)CC1 [Example 9, N-[(S)-(4,4-Difluorocyclohexyl){7-[4,4-difluoro-1-(2,2,2-trifluoroethylcarbamoyl)-cyclohexyl]imidazo[1,2-b]pyridazin-2-yl}methyl]-4-methyl-1,2,5-oxadiazole-3-carboxamide]	63.1
Cc1nonc1C(=O)NC(c1cn2ncc(C(CC(F)F)C(=O)NCC(F)(F)F)cc2n1)C(C1CC1)C1CC1 (stereo not shown) [Example 11, N-(2,2-Dicyclopropyl-1-{7-[3,3-difluoro-1-(2,2,2-trifluoroethylcarbamoyl)propyl]-imidazo[1,2-b]pyridazin-2-yl}ethyl)-4-methyl-1,2,5-oxadiazole-3-carboxamide]	316
Cc1nonc1C(=O)N[C@H](c1cn2ncc(C3(C(=O)NCC(C)(F)F)CCOCC3)cc2n1)C1CCC(F)(F)CC1 [Example 14, N-[(S)-(4,4-Difluorocyclohexyl){7-[4-(2,2-difluoropropylcarbamoyl)tetrahydropyran-4-yl]imidazo[1,2-b]pyridazin-2-yl}methyl]-4-methyl-1,2,5-oxadiazole-3-carboxamide]	63.1
CC(F)(F)CNC(=O)C1(c2cnn3cc([C@@H](NC(=O)c4nonc4C4CC4)C4CCC(F)(F)CC4)nc3c2)CCOCC1 [Example 17, 4-Cyclopropyl-N-[(S)-(4,4-difluorocyclohexyl){7-[4-(2,2-difluoropropylcarbamoyl)-tetrahydropyran-4-yl]imidazo[1,2-b]pyridazin-2-yl}methyl]-1,2,5-oxadiazole-3-carboxamide]	6.31
